Laboratory results published in PubChem BioAssay (NCI).
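Following 48 hours of exposure in 96-well plates, responses at five concentrations were used to interpolate endpoints linearly. At the TGI there is no net growth.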 Where a SMILES comes first, the peptide text is derived from it. The star is where a group is joined. Cbz = O=C(OCc1ccccc1)*

Tests used:
Assay in all cases: DTP human tumour cell line panel, 48 h
[1] = test system: SNB-75 CNS
[2] = test system: HCC-2998 colon
[3] = test system: SW-620 colon
[4] = test system: HT29 colon
[5] = test system: ACHN renal
[6] = test system: A549 NSCLC
[7] = test system: OVCAR-3 ovarian
[8] = test system: NCI-H522 lung
[9] = test system: HCT-15 colon
[10] = test system: SNB-19 CNS
[11] = test system: HOP-92 NSCLC
[12] = test system: UACC-62 melanoma

SMILES	TGI [1] [µM]	TGI [2] [µM]	TGI [3] [µM]	TGI [4] [µM]	TGI [5] [µM]	TGI [6] [µM]	TGI [7] [µM]	TGI [8] [µM]	TGI [9] [µM]	TGI [10] [µM]	TGI [11] [µM]	TGI [12] [µM]
CCN(CC)c1cccc2c1C1(O)CCC3(CC21)OCCCCO3 (stereo not given)	> 100	> 100	> 100	> 100	> 100	> 100	> 100	> 100	> 100	41		
Nc1ncc(CN2CCOCC2)c(-c2ccccc2O)n1	> 100		> 100	> 100	> 100	> 100	> 100		> 100		> 100	> 100
N#C/C(=C\c1ccc(Br)cc1)c1nc(-c2cc3ccccc3oc2=O)cs1	30.6	> 50	> 50	> 50	26.1	> 50		16.1	> 50	24.1	36.6	23.7
O=S1c2ccccc2SCSc2ccccc21		> 100		> 100	> 100	> 100	> 100	> 100	> 100	> 100	> 100	> 100
CC(=O)c1cccc(NC(=O)C(=O)C(C(=O)c2ccccc2F)C2OC(=O)c3ccccc32)c1 (stereo not given)	76.3	53.9	> 100	> 100	> 100	> 100		56.7	> 100	> 100	> 100	> 100
CCOC(=O)C(CC(=O)OC)NC(=O)C(CC(=O)OC)NC(=O)C(CC(=O)OC)NC(=O)C(CC(=O)OC)NC(=O)OCc1ccccc1 (stereo not given) (Cbz-D(OMe)D(OMe)D(OMe)D(OMe)-OEt; configuration not given here)	> 100	> 100	> 100	> 100	> 100	> 100			> 100	> 100	> 100	> 100
O=C1c2ccccc2-c2c1c(-c1ccccc1)c1n2C2(C(=O)c3ccccc3C2=O)C2C(=O)N(c3ccccc3)C(=O)C12 (stereo not given)	79.2		> 100	41.6	> 100	> 100	51.1	33.6	42.8	> 100	73.7	49
CC(=O)N1N=C(c2c(O)ccc3ccccc23)CC1c1ccc(Cl)cc1 (stereo not given)	> 100	34	> 100	69.5	> 100	> 100	32.1	> 100	> 100		39.5	27.6
FC(F)(F)C1(C(F)(F)F)O[SiH]2(OC(C(F)(F)F)(C(F)(F)F)c3ccccc32)c2ccccc21		37.4	45.4	23.2	78.8		40.6	42	25.9	> 100		
O=[N+]([O-])/C=C/COCc1cc2c(cc1Br)OCO2	31.7	34.2	39.4	45.4	30	38.5	30.3	50.7	34.3		65.3	30.1
C/C(=N\NC(=S)NNC(=S)N(C)c1ccccc1)c1ccccn1	> 100	> 100	> 100	> 100	> 53.6	> 100	> 100		> 100	> 100	26.6	
O=C(/C=C(\O)c1ccc(Cl)cc1)C(=O)NN=C(c1ccccc1)c1ccccc1	> 100	> 100		> 100	> 100	> 100	> 100	49	> 100	> 100		> 100
COc1ccc2nc3ccc(OC)cc3c(SCC3CO3)c2c1 (stereo not given)	> 100	29.7	24.4		21.7	> 100	28.5	33.2	33.6	80.4		
Cc1cc(C)c(NS(=O)c2cccc(Cl)c2)c(C)c1 (stereo not given)			> 100	> 100	> 100	> 100	> 100		> 100	> 100	> 100	
COc1ccc(/C=C2\CN(C)CC3C2=NC(=S)NC3c2ccc(OC)cc2)cc1 (stereo not given)		> 100	> 100	83.1	> 100	> 100	10.3	> 20.8	> 100	> 100	94.3	> 100
O=C(CC(C(=O)c1cccs1)c1ccsc1)c1ccco1 (stereo not given)	84.4	> 100	> 100	29.7	99.2	42.9	> 100	54.1	49.5		> 100	62.1
CN(C)CCCNc1ccc2nnn3c4ccc(OC(=O)c5ccc([N+](=O)[O-])cc5)cc4c(=O)c1c23		25.5	17	20.6	14.1	20.6	24.1	24	24.1	22.8	> 57.6	37
COc1cc(C2c3cc4c(cc3OC(NCc3ccccc3)C2C)OCO4)cc(OC)c1OC (stereo not given)		4	> 36	3.32	> 39.8	> 94	3.1	4.02	> 44.4	> 100	20.3	14.1
CN(C)/C=C/c1ccncc1		> 100	> 100	> 100	> 100	> 100	> 100	> 100	> 100	> 100	> 100	> 100
CO/N=C(/C(=O)OC)c1ccccc1COc1cccc(C(F)(F)F)c1	> 100		> 100	> 100	> 100	> 100	93.7	70.2	> 100	> 100	> 100	> 100
